Tests used:
Assay type in all cases: in vivo
[1] = tested on: human ovarian cancer cell line SK-OV-3; assay: Antitumor effect in SK-OV-3 tumor-bearing nude mice; conditions: SK-OV-3 s.c. xenograft, BALB/c nude mice, 60 mg/kg/inj. (47 in terms of free base) intravenously, once a week for three weeks
Protocol: Antitumor effects were determined for representative examples of the compound groups of the present invention. Antitumor effects were determined using tumor-bearing mice generated by subcutaneous transplantation of the human ovarian cancer cell line SK-OV-3 obtained from American Type Culture Collection (Virginia, USA) into the right ventral neck of BALB/c nude mice purchased from Japan Charles River.
After a six-day quarantine period, the purchased nude mice were subjected to subcutaneous transplantation of a 2-3 mm square piece of the SK-OV-3 tumor to their right ventral neck. Mice with a tumor size reaching 210 mm^3 or so were subjected to the experiment.
(§1) The compounds were dissolved in physiological saline, and were administered intravenously. The administration was carried out once a week for three weeks, for a total of three administrations. The antitumor effect was determined as tumor growth inhibition (TGI), using the following equation.
(§2) Tumor growth inhibition (TGI) (%)={(1−amount of tumor growth in the group treated with the drug/amount of tumor growth in the control group)×100}

[2] = tested on: human liver cancer cell line PLC/PRF/5; assay: Antitumor effect in PLC/PRF/5 tumor-bearing nude mice; conditions: PLC/PRF/5 s.c. xenograft, BALB/c nude mice, 60 mg/kg/inj. (47 in terms of free base) intravenously, once a week for three weeks
Protocol: Antitumor effects were determined for representative examples of the compound groups of the present invention. Antitumor effects were determined using tumor-bearing mice generated by subcutaneous transplantation of human liver cancer cell line PLC/PRF/5 obtained from Human Science into the right ventral neck of BALB/c nude mice purchased from Japan Charles River.
After a one-week quarantine period, the purchased nude mice were subjected to subcutaneous transplantation of 20×10^6 PLC/PRF/5 cells to their right ventral neck. Mice with a tumor size reaching 200 mm^3 or so were subjected to the experiment.
as §1, §2

[3] = tested on: human pancreatic cancer cell line Capan-1; assay: Antitumor effect in Capan-1 tumor-bearing nude mice; conditions: Capan-1 s.c. xenograft, BALB/c nude mice, 66 mg/kg/inj. (47 in terms of free base) intravenously, once a week for three weeks
Protocol: (§3) Antitumor effects were determined for representative examples of the compound groups of the present invention. Antitumor effects were determined using tumor-bearing mice generated by subcutaneous transplantation of human pancreatic cancer cell line Capan-1 obtained from American Type Culture Collection (Virginia, USA) into the right ventral neck of BALB/c nude mice purchased from Japan Charles River.
After a 19-day quarantine period, the purchased nude mice were subjected to subcutaneous transplantation of 10×10^6 Capan-1 cells to their right ventral neck. Mice with a tumor size reaching 260 mm^3 or so were subjected to the experiment.
as §1, with “1 mM citric acid/physiological saline (pH3.1-3.2),” for “physiological saline,”
as §2

[4] = tested on: human ovarian cancer cell line PA-1; assay: Antitumor effect in PA-1 tumor-bearing nude mice; conditions: PA-1 s.c. xenograft, BALB/c nude mice, 40 mg/kg/inj. (32 in terms of free base) intravenously, once a week for three weeks
Protocol: Antitumor effects were determined for representative examples of the compound groups of the present invention. Antitumor effects were determined using tumor-bearing mice generated by the subcutaneous transplantation of human ovarian cancer cell line PA-1 obtained from American Type Culture Collection (Virginia, USA) into the right ventral neck of BALB/c nude mice purchased from Japan Charles River.
After a one-week quarantine period, the purchased nude mice were subjected to subcutaneous transplantation of 9.8×10^6 PA-1 cells to their right ventral neck. Mice with a tumor size reaching 200 mm^3 or so were subjected to the experiment.
as §1
Tumor growth inhibition (TGI) (%) {(1−amount of tumor growth in the group treated with the drug/amount of tumor growth in the control group)×100}

[5] = tested on: human pancreatic cancer cell line AsPC-1; assay: Antitumor effect in AsPC-1 tumor-bearing nude mice; conditions: AsPC-1 s.c. xenograft, BALB/c nude mice, 60 mg/kg/inj. (47 in terms of free base) intravenously, once a week for three weeks
Protocol: as §3, with “AsPC-1” for “Capan-1”
After a one-week quarantine period, the purchased nude mice were subjected to subcutaneous transplantation of 4.8×10^6 AsPC-1 cells to their right ventral neck. Mice with a tumor size reaching 200 mm^3 or so were subjected to the experiment.
as §1, with “1 mM citric acid/physiological saline (pH3.1-3.2),” for “physiological saline,”
as §2

[6] = tested on: human pancreatic cancer cell line BxPC-3; assay: Antitumor effect in BxPC-3 tumor-bearing nude mice; conditions: BxPC-3 s.c. xenograft, BALB/c nude mice, 66 mg/kg/inj. (47 in terms of free base) intravenously, once a week for three weeks
Protocol: as §3, with “BxPC-3” for “Capan-1”
After a seven-day quarantine period, the purchased nude mice were subjected to subcutaneous transplantation of 9×10^6 BxPC-3 cells to their right ventral neck. Mice with a tumor size reaching 400 mm^3 or so were subjected to the experiment.
as §1, with “1 mM citric acid/physiological saline (pH3.1-3.2),” for “physiological saline,”
as §2

In the case of `CCCCCN1C=Nc2cccc3nc4c(c1c23)Cn1c-4cc2c(c1=O)COC(=O)[C@@]2(CC)OC(=O)CN(C)C(=O)CN.Cl` [Compound 2A, (9S)-9-Ethyl-9-(glycyl-sarcosyloxy)-1-pentyl-1H,12H-pyrano[3″,4″:6′,7′]indolizino[1′,2′:6,5]pyrido[4,3,2-de]quinazoline-10,13(9H,15H)-dione Hydrochloride], the “TGI (%) on Day 21” value [1] is reported as 52%, the “TGI (%) on Day 21” value [2] is reported as 84% and the “TGI (%) on Day 21” value [3] is reported as 122%. For the same molecule, the “TGI (%) on Day 21” value [4] was 84%, the “TGI (%) on Day 21” value [5] was 73% and the “TGI (%) on Day 14” value ([6]; Day 14) was 55%. For the same molecule, the “TGI (%) on Day 21” value ([6]; Day 21) was 47%.

Source: patent US20090118271A1, “Preventive or Therapeutic Agents for Pancreatic Cancer, Ovarian Cancer, or Liver Cancer Comprising a Novel Water-Soluble Prodrug” (CHUGAI SEIYAKU KABUSHIKI KAISHA, priority 2005, published 2009)
